Data taken from US4291042A, “Antidepressant piperidine derivatives” (John Wyeth & Brother Limited, priority 1979, dated 1981).

Experiments:
[1] = test system: uptake of 5-hydroxytryptamine; experiment: inhibition of 5-hydroxytryptamine uptake in brain slices; format: biochemical, rat; design: key: Compounds not achieving 50% inhibition are considered inactive; conditions: for inhibition of 5-HT (hydroxytryptamine) uptake (in words): rat brain slices; for Potency Ratio (imipramine = 1.0) 5-hydroxytryptamine: rat cerebral cortex slices, H^3 5-hydroxytryptamine
Experimental: (§1) The compounds of formula I were tested for the ability to inhibit noradrenaline and 5-hydroxytryptamine uptake in brain slices in the following standard test:
The effects of test compounds on the neuronal uptake of noradrenaline into slices of cerebral cortex prepared from rat brain is determined according to the method described by Snyder, Green and Hendley, Kinetics of H^3 --norepinephrine accumulation into slices from different regions of the rat brain (J.Pharm. exp. Therap. 164: 90-102) (1968). The effects of test compounds on the uptake of 5-hydroxytryptamine is obtained in a similar manner except that H^3 5-hydroxytryptamine is used in place of H^3 noradrenaline. Concentration-response curves are obtained both for the test compound and for the standard agent, imipramine. The potency of each test compound is expressed in proportion to that of imipramine. Thus, [formula]

[2] = test system: neuronal uptake of noradrenaline into slices of cerebral cortex; experiment: inhibition of noradrenaline uptake in brain slices; format: biochemical, rat; conditions: for inhibition of noradrenaline uptake (in words): rat brain slices; for Potency Ratio (imipramine = 1.0) Noradrenaline: rat cerebral cortex slices, H^3 noradrenaline
Experimental: as §1
Concentration-response curves are obtained both for the test compound and for the standard agent, imipramine. The potency of each test compound is expressed in proportion to that of imipramine. Thus, [formula]

[3] = test system: p-chloroamphetamine induced hyperactivity; experiment: inhibition of p-chloroamphetamine (pCA) induced hyperactivity; format: in vivo; conditions: female mice; 50 mg/kg po; 20 mg/kg pCA ip 30 min later; activity 10-30 min post pCA
Experimental: Compounds of formula I were also tested for their ability to inhibit p-chloroamphetamine induced hyperactivity. The following procedure was used:
Three groups of 4 female mice (20-24 g) received the test compounds (50 mg/kg po) and a fourth group the requisite volume of vehicle. Thirty minutes later all the animals are given 20 mg/kg p-chloroamphetamine (pCA) ip. The grouped mice are placed immediately in square plastic cages in activity monitors and their motor activity recorded over the period 10-30 minutes post pCA. This procedure is repeated three more times so that four groups of mice are used per treatment and each activity monitor is used with all treatments in turn. The inhibition of pCA induced hyperactivity is calculated thus: [formula] where C=mean activity of control groups 10-30 minutes post pCA.
T=mean activity of treated groups 10-30 minutes post pCA.
This test is used as an in vivo screen for detection of 5-hydroxytryptamineuptake inhibitors.
Compounds giving >50% inhibition are considered of special interest. In such a test the following compounds were particularly active: […]

## O=C1c2ccccc2C(=O)N1C1CCN(Cc2ccccc2)CC1 [B, 2-(1-benzylpiperid-4-yl)-1H-isoindol-1,3-(2H)-dione, reference compound]
[1]
  inhibition of 5-HT (hydroxytryptamine) uptake (in words): inactive
  Potency Ratio (imipramine = 1.0) 5-hydroxytryptamine: inactive
[2]
  inhibition of noradrenaline uptake (in words): inactive
  Potency Ratio (imipramine = 1.0) Noradrenaline: inactive

## O=C1c2ccccc2S(=O)(=O)N1C1CCN(Cc2c[nH]c3ccccc23)CC1 [Example 3, 2-(1-[Indol-3-ylmethyl]piperid-4-yl)-1,2-benzisothiazolin-3-one-1,1-dioxide]
[3]
  % Inhibition of pCA induced hyperactivity: 56%

## O=C1c2ccc(Cl)cc2C(=O)N1C1CCN(CCc2c[nH]c3ccccc23)CC1 [Example 8, 5-Chloro-2-(1-[2-(indol-3-yl)ethyl]piperid-4-yl)-1H-isoindole-1,3-(2H)-dione]
[3]
  % Inhibition of pCA induced hyperactivity: 94%

## O=C1c2ccc(Cl)cc2C(=O)N1C1CCN(Cc2c[nH]c3ccccc23)CC1 [Example 16, 5-Chloro-2-[1-(indol-3-ylmethyl)piperid-4-yl]-1H-isoindole-1,3-(2H)-dione]
[3]
  % Inhibition of pCA induced hyperactivity: 63%

## O=C1c2ccccc2C(=O)N1C1CCN(Cc2c[nH]c3ccccc23)CC1 [I, 2-(1-[Indol-3-ylmethyl]piperid-4-yl)-1H-isoindole-1,3-(2H)-dione]
[1]
  inhibition of 5-HT (hydroxytryptamine) uptake (in words): potent inhibitors
  Potency Ratio (imipramine = 1.0) 5-hydroxytryptamine: 9.5
[2]
  inhibition of noradrenaline uptake (in words): very weak inhibitors
  Potency Ratio (imipramine = 1.0) Noradrenaline: 0.01
[3]
  % Inhibition of pCA induced hyperactivity: 53%

## O=C1c2ccccc2C(=O)N1C1CCN(CCc2c[nH]c3ccccc23)CC1 [II, 2-(1-[2-(Indol-3-yl)ethyl]piperid-4-yl)-1H-isoindol-1,3-(2H)-dione]
[1]
  inhibition of 5-HT (hydroxytryptamine) uptake (in words): potent inhibitors
  Potency Ratio (imipramine = 1.0) 5-hydroxytryptamine: 8.3
[2]
  inhibition of noradrenaline uptake (in words): very weak inhibitors
  Potency Ratio (imipramine = 1.0) Noradrenaline: 0.06

## Nc1ccc2c(c1)C(=O)N(C1CCN(CCc3c[nH]c4ccccc34)CC1)C2=O [III, 5-amino-2-(1-[2-(indol-3-yl)ethyl]piperid-4-yl)-1H-isoindole-1,3-(2H)-dione]
[1]
  inhibition of 5-HT (hydroxytryptamine) uptake (in words): potent inhibitors
  Potency Ratio (imipramine = 1.0) 5-hydroxytryptamine: 11.0
[2]
  inhibition of noradrenaline uptake (in words): very weak inhibitors
  Potency Ratio (imipramine = 1.0) Noradrenaline: inactive
